Experimental data as given in EP2486923B1, “Histone deacetylase (HDAC) inhibiting compounds and method of making same” (Dr. Felix Jäger und Dr. Stefan Drinkuth Laborgemeinschaft …, priority 2011, dated 2012).
Where two headings read alike, the source gives them in different places.

Legend:
Test in all cases: Two-step fluorescence assay for determination of IC50
Format in all cases: biochemical
HDAC7 = biological target: T1, HDAC7 (Homo sapiens, UniProt Q8WUI4)
T1 sequence (Q8WUI4 1-952): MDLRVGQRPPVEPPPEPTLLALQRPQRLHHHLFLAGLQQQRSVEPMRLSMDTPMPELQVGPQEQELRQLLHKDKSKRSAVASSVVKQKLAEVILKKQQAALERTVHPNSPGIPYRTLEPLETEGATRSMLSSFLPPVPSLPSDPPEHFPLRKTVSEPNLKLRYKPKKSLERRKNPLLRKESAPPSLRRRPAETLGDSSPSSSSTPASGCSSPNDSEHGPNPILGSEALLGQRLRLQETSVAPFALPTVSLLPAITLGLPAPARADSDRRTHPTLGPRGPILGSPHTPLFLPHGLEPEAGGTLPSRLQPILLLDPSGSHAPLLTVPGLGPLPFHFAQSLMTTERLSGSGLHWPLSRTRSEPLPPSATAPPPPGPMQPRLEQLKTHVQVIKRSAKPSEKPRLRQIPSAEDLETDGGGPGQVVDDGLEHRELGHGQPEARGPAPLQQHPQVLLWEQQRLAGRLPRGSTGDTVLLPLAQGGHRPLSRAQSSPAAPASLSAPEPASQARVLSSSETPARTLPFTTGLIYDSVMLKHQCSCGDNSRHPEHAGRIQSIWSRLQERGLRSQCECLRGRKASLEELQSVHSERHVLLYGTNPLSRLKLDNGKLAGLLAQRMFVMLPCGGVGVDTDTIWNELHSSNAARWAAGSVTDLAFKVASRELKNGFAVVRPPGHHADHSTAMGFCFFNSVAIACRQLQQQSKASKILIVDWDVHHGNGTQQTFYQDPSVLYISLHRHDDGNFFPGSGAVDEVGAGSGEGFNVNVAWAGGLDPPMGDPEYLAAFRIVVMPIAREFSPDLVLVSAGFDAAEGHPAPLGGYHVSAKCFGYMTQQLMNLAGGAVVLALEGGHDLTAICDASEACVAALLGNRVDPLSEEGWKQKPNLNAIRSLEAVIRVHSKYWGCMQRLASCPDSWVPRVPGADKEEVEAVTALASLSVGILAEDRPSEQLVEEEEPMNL
Description: (§1) In order to evaluate the inhibitory characteristics of example compounds of the invention, IC50 values were determined for such compounds. […] A two-step assay was used for this purpose.
(§2) To obtain the IC50 value for an individual compound/HDAC pair, a two-step assay can be performed based on a fluorescence signal. In principle, an ε-acetylated lysine substrate is deacetylated by histone-deacetylases in the first step. Trypsin releases detectable 7-amino-4-methylcoumarin (ex = excitation wavelength: 390 nm, em = emission wavelength: 460 nm) by cleaving the substrate at the deacetylated lysine in a subsequent reaction^[9]. The enzyme activity is inhibited by a suitable HDACi.
(§3) The obtained data are interpreted using a four parameter fit. Based on this fit, the IC50 value can be estimated. Analysis ot the data and calculation of the IC50 values was accomplished using a four-parameter logistic model protocol as previously described by Vølund^[16]. For nonlinear fits the Levenberg-Marquardt algorithm was applied^[17],[18]. […] Table 1: IC50 values in µM for synthesized compounds of the invention with a perfluorinated linker. […] HDAH = HDAC-like amidohydrolase

HDAC1 = HDAC1 (Homo sapiens, UniProt Q13547)
Sequence of HDAC1 (Q13547 whole entry): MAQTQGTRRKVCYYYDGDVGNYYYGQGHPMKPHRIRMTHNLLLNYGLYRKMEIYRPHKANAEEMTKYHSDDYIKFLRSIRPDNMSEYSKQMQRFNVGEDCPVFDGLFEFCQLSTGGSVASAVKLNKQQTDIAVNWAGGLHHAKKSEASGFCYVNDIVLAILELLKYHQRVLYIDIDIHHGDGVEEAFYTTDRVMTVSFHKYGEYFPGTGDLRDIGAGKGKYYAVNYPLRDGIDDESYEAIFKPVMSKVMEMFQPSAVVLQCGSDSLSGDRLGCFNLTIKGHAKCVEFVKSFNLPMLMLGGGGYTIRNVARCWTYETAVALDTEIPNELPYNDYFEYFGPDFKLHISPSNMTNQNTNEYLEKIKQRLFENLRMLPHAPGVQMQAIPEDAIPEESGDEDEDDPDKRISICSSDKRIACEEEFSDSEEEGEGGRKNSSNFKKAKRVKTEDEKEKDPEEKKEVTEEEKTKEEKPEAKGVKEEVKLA
Description: as §1, §2, §3

HDAC6 = biological target: T2, HDAC6 (Homo sapiens, UniProt Q9UBN7)
T2 sequence (Q9UBN7 1-1215): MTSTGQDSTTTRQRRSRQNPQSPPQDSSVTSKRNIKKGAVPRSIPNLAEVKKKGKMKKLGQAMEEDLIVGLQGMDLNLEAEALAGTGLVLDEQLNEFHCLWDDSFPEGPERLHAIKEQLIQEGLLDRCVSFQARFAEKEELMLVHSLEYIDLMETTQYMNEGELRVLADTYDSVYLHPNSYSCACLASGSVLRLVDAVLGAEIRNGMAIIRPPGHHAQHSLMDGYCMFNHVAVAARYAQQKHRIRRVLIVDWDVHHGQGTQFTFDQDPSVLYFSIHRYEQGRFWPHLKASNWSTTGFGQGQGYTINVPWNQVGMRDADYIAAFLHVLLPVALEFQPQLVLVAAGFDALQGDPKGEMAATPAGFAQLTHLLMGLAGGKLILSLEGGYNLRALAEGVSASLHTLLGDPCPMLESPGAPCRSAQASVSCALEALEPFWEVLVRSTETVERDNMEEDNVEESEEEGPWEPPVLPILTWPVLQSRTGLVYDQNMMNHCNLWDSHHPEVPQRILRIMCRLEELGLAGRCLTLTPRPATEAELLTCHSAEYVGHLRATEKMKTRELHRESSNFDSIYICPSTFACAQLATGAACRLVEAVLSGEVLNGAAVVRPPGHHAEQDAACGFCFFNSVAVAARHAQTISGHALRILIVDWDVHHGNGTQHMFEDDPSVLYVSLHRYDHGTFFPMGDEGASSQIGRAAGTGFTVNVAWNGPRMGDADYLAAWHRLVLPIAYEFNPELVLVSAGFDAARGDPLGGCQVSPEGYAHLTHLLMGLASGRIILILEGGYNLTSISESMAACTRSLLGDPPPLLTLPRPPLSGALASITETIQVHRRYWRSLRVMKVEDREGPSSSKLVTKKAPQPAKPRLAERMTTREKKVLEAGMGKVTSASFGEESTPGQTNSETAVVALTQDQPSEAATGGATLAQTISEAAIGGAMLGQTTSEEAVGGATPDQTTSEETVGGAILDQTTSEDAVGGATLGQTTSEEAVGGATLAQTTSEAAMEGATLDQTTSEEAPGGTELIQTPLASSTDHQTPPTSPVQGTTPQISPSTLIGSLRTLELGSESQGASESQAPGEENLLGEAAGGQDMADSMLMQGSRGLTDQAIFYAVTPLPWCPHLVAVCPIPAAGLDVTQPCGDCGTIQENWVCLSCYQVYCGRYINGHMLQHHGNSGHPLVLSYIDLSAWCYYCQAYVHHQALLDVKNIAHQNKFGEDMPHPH
Description: as §1, §2, §3

HDAH = biological target: T3, HDAH (Alcaligenes sp., UniProt Q70I53)
T3 sequence (Q70I53 1-369): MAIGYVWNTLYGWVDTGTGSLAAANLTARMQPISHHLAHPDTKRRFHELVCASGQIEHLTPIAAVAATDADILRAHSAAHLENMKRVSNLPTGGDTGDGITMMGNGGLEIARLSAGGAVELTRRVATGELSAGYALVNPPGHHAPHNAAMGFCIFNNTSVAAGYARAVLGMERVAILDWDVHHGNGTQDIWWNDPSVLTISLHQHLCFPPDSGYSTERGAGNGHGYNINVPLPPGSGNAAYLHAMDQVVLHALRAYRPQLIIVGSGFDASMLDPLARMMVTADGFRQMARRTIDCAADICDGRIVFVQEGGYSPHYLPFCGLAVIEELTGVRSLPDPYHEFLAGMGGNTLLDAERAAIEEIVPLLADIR
Description: as §1, §2, §3

HDAC8 = biological target: T4, HDAC8 (Homo sapiens, UniProt Q9BY41)
T4 sequence (Q9BY41 1-377): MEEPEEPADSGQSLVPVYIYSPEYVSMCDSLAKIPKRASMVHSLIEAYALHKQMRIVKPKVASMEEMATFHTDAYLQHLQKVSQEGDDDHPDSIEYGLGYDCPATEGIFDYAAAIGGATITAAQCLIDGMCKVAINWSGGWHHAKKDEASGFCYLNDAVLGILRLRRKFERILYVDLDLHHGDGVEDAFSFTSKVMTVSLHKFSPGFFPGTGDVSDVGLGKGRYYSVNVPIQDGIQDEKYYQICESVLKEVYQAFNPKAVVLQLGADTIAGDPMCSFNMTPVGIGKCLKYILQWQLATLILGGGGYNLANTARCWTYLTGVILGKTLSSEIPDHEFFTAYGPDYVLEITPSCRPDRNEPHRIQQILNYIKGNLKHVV
Description: as §1, §2, §3

[1] = ε-acetylated lysine substrate, trypsin release of 7-amino-4-methylcoumarin, four parameter fit, read-out: IC50 values HDAC6
[2] = HDAC-like amidohydrolase, ε-acetylated lysine substrate, trypsin release of 7-amino-4-methylcoumarin, four parameter fit, read-out: IC50 values HDAH
[3] = ε-acetylated lysine substrate, trypsin release of 7-amino-4-methylcoumarin, four parameter fit, read-out: IC50 values HDAC1
[4] = ε-acetylated lysine substrate, trypsin release of 7-amino-4-methylcoumarin, four parameter fit, read-out: IC50 values HDAC7
[5] = ε-acetylated lysine substrate, trypsin release of 7-amino-4-methylcoumarin, four parameter fit, read-out: IC50 values HDAC8

Compound	IC50 (HDAC7) [µM]	IC50 (HDAC1) [µM]	IC50 (HDAC6; [1]) [µM]	IC50 (HDAH; [2]) [µM]	IC50 (HDAC1; [3]) [µM]	IC50 (HDAC8) [µM]	IC50 (HDAC7; [4]) [µM]	IC50 (HDAC6) [µM]	IC50 (HDAH) [µM]	IC50 (HDAC8; [5]) [µM]
O=C(NO)C(F)(F)C(F)(F)C(F)(F)C(F)(F)C(F)(F)C(F)(F)C(=O)Nc1ccccc1 [LU210, 2,2,3,3,4,4,5,5,6,6,7,7-Dodecafluorooctanedioic acid hydroxyamide phenyl-amide]	14.8	17.9	12.5	1.67						
Cc1ccc(NC(=O)C(F)(F)C(F)(F)C(F)(F)C(F)(F)C(F)(F)C(F)(F)C(=O)NO)cc1 [LU222, 2,2,3,3,4,4,5,5,6,6,7,7-Dodecafluorooctanedioic acid hydroxyamide 4-methyl-phenylamide]	84.8		> 100	0.86	16.3	87.6				
O=C(NO)C(F)(F)C(F)(F)C(F)(F)C(F)(F)C(F)(F)C(F)(F)C(=O)Nc1ccc(Cl)cc1 [LU223, 2,2,3,3,4,4,5,5,6,6,7,7-Dodecafluorooctanedioic acid (4-chlorophenyl)amide hydroxyamide]					15.1		26.8	26.3	0.72	73
CC(=O)Nc1ccc(NC(=O)C(F)(F)C(F)(F)C(F)(F)C(F)(F)C(F)(F)C(F)(F)C(=O)NO)cc1 [LU224, 2,2,3,3,4,4,5,5,6,6,7,7-Dodecafluorooctanedioic acid (4-acetylaminophenyl)-amide hydroxyamide]			10.5	3.41	21.8		21.5			76.2
N#Cc1ccc(NC(=O)C(F)(F)C(F)(F)C(F)(F)C(F)(F)C(F)(F)C(F)(F)C(=O)NO)cc1 [LU225 A, 2,2,3,3,4,4,5,5,6,6,7,7-Dodecafluorooctanedioic acid (4-cyanophenyl)amide hydroxyamide]			> 100		21.8		53.7		0.7	73.9
O=C(NO)C(F)(F)C(F)(F)C(F)(F)C(F)(F)C(F)(F)C(F)(F)C(=O)Nc1ccc(I)cc1 [LU227, 2,2,3,3,4,4,5,5,6,6,7,7-Dodecafluorooctanedioic acid hydroxyamide (4-iodo-phenyl)amide]			5.13	0.91	16.9		6.86			75.8
Cc1ccc(NC(=O)C(F)(F)C(F)(F)C(F)(F)C(F)(F)C(F)(F)C(F)(F)C(=O)NO)cc1C [LU228, 2,2,3,3,4,4,5,5,6,6,7,7-Dodecafluorooctanedioic acid (3,4-dimethylphenyl)-amide hydroxyamide]	5.51	10	7.8	0.66						22.8
O=C(NO)C(F)(F)C(F)(F)C(F)(F)C(F)(F)C(F)(F)C(F)(F)C(=O)Nc1ccc(-c2ccccc2)cc1 [LU229, 2,2,3,3,4,4,5,5,6,6,7,7-Dodecafluorooctanedioic acid biphenyl-4-ylamide hydroxyamide]	22		59.1	0.78	37.9					> 100
CCc1cccc(NC(=O)C(F)(F)C(F)(F)C(F)(F)C(F)(F)C(F)(F)C(F)(F)C(=O)NO)c1 [LU232, 2,2,3,3,4,4,5,5,6,6,7,7-Dodecafluorooctanedioic acid (3-ethylphenyl)amide hydroxyamide]		19.9		9.18			4.97	1.55		21.3
O=C(NO)C(F)(F)C(F)(F)C(F)(F)C(F)(F)C(F)(F)C(F)(F)C(=O)Nc1ccc2ccc3cccc4ccc1c2c34 [LU234, 2,2,3,3,4,4,5,5,6,6,7,7-Dodecafluorooctanedioic acid hydroxyamide pyren-1-ylamide]			20.2	1.48	28.3	77.8	> 100			
O=C(NO)C(F)(F)C(F)(F)C(F)(F)C(F)(F)C(F)(F)C(F)(F)C(=O)Nc1nc(-c2ccccc2)cs1 [LU235, 2,2,3,3,4,4,5,5,6,6,7,7-Dodecafluorooctanedioic acid hydroxyamide (4-phenylthiazol-2-yl)amide]			6.47	5.11	3.31		1.77			2.1
